Reference: patent US8399417B2, “Food” (Ajinomoto Co., Inc., priority 2007, dated 2013)
Starred links: 1 amine or outer side, 2 acyl side, 3 side chain; linkers in the order of their positions; H or OH if unused. Non-standard residues stand in square brackets, D forms with d. No end group written: not given here. γGlu = O=C(O)[C@H](CCC(=O)[*:2])N[*:1]; Orn = NCCC[C@H](N)C(=O)O

Assays:
human calcium receptor = molecular target: T1, human calcium receptor (Homo sapiens, UniProt P41180); test: Calcium receptor-activating effect: Ca ion concentration-dependent Cl ionic current in Xenopus laevis oocyte expression system; assay type: cell-based; details: for Activity (lowest concentration at which current was detected): peptide added at 1,000 to 0.1 μM to potential-clamped oocytes, Table 1
T1 construct: expressed in transfected cells; host or cells: Xenopus laevis oocytes injected with cRNA; the gene was PCR-cloned from human kidney cDNA (Clontech) into pBR322
T1 sequence (P41180 20-1078): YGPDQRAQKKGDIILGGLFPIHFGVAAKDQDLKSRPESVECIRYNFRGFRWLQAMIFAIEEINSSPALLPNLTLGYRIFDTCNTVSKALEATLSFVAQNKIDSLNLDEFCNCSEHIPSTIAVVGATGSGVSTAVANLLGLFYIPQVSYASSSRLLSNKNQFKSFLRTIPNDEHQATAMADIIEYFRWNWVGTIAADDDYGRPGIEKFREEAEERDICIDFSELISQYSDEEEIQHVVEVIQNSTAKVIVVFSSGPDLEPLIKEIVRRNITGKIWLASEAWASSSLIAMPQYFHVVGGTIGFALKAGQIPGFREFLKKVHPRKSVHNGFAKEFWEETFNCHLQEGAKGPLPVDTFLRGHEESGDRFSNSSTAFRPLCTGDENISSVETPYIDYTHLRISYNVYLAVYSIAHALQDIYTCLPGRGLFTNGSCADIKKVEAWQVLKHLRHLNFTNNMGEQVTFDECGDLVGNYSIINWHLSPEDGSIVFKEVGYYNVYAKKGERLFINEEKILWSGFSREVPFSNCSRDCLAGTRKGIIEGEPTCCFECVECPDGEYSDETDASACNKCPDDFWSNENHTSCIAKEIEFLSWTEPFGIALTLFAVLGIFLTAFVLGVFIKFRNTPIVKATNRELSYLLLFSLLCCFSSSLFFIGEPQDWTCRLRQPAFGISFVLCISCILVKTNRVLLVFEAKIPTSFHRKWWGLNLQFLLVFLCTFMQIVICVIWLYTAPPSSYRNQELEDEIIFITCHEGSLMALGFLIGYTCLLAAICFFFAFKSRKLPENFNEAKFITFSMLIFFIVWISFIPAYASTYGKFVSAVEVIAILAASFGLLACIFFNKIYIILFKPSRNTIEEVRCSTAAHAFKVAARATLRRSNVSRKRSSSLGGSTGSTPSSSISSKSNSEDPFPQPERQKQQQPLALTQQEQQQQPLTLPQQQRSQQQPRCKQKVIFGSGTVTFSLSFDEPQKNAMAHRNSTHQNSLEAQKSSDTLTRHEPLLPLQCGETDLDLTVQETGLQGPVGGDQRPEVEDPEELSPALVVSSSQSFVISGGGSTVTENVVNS
Experimental: For evaluation of the calcium receptor-activating effect, a Ca ion concentration-dependent Cl ionic current measuring method using a Xenopus laevis oocyte expression system was used. If each activator is added to Xenopus laevis oocytes expressing the calcium receptor, intracellular Ca ions increase. Then, the Ca ion concentration-dependent Cl channel opens, and the intracellular current value changes as an ionic current. By measuring the change in the intracellular current value, whether the calcium receptor-activating effect is present or not can be determined.
Specifically, the abdomen of Xenopus laevis was opened, and an egg batch was taken out and then treated with a 1% collagenase solution at 20° C. for 2 hours to obtain individual oocytes. Into the oocytes, 50 nl of 1 μg/μl receptor cRNA or 50 nl of sterilized water per oocyte were injected by using a micro glass capillary, and the oocytes were cultured at 18° C. for 2 to 3 days. For the culture, a solution obtained by adding 2 mM pyruvic acid, 10 U/ml penicillin, and 10 μg/ml streptomycin to the solution in Reference Example 2 was used. After the culture, a test solution was added to the oocytes injected with cRNA or sterilized water. Electrophysiological measurement was performed by using an amplifier Geneclamp 500 (manufactured by Axon) and recording software AxoScope 9.0 (manufactured by Axon). The oocytes were membrane potential-clamped at −70 mV by the double electrode potential clamp method, and the intracellular current via the Ca ion concentration-dependent Cl ion was measured. The maximum value of the intracellular current was defined as the response current value.
The calcium receptor-activating effect of L-amino acids was evaluated by using the method described in Reference Example 6. That is, oocytes injected with cRNA of the calcium receptor or sterilized water were prepared, and membrane potential-clamped at −70 mV by the double electrode potential clamp method. To the potential-clamped oocytes, alanine (10 mM), arginine (10 mM), asparagine (10 mM), aspartic acid (10 mM), cysteine (10 mM), glutamine (10 mM), glutamic acid (10 mM), glycine (10 mM), histidine (10 mM), isoleucine (10 mM), leucine (10 mM), lysine (10 mM), methionine (10 mM), phenylalanine (10 mM), proline (10 mM), serine (10 mM), threonine (10 mM), tryptophan (10 mM), tyrosine (10 mM), valine (10 mM), ornithine (10 mM), taurine (10 mM), or hydroxyproline (10 mM) was added, and Ca ion concentration-dependent Cl response current was measured. […] 25, 2000, 97(9): 4814-9.
The calcium receptor-activating effect of D-cysteine was evaluated by using the method described in Reference Example 6. That is, oocytes injected with cRNA of the calcium receptor or sterilized water were prepared, and membrane potential-clamped at −70 mV by the double electrode potential clamp method. To the potential-clamped oocytes, D-cysteine (10 mM), L-cysteine (10 mM), D-tryptophan (10 mM), or L-tryptophan (10 mM) was added, and Ca ion concentration-dependent Cl response current was measured.
The calcium receptor-activating effect of a peptide was evaluated by using the method described in Reference Example 6. That is, oocytes injected with cRNA of the calcium receptor or sterilized water were prepared, and membrane potential-clamped at −70 mV by the double electrode potential clamp method.
The calcium receptor-activating effects of peptides were evaluated in the same manner as that of Reference Example 10. Each of the peptides shown in Table 1 was added to potential-clamped oocytes at 1,000 μM, 300 μM, 100 μM, 30 μM, 10 μM, 3 μM, 1 μM, 0.3 μM, and 0.1 μM, and Ca ion concentration-dependent Cl response current was measured.

[1] = Kokumi-imparting activity intensity, quantitative sensory evaluation test; assay type: in vivo, human; details: 0.1 g/dl; for Kokumi intensity, Aftertaste / Kokumi intensity, Initial and middle taste: control 0, glutathione 3 points
Experimental: The quantitative sensory evaluation test was performed as follows. […] It should be noted that a sample, which became acidic after the sample had been dissolved, was adjusted with NaOH to pH 6.8 to 7.2 before use. […] The test was performed with n=3 based on the following sensory evaluation scores: control (0 point) and glutathione addition (3 points).
The quantitative sensory evaluation test was performed as follows. […] It should be noted that a sample, which became acidic after the sample had been dissolved, was adjusted with NaOH to pH 6.8 to 7.2 before use. The test was performed with n=5 based on the following sensory evaluation scores: control (0 point) and glutathione addition (3 points).
The quantitative sensory evaluation test was performed as follows. […] It should be noted that a sample, which became acidic after the sample had been dissolved, was adjusted with NaOH to pH 6.8 to 7.2 before use. The test was performed with n=12 based on the following sensory evaluation scores: control (0 point) and glutathione addition (3 points).

[2] = sodium glutamate, inosine monophosphate, sodium chloride solution, n=3, Table 3

Q: For Leu-Asp, which “calcium receptor-activating effect (Cl response current)” value (“calcium receptor-activating effect” below) (human calcium receptor; peptide 1 mM, FIG. 4) is on record?
A: Its value is “definite calcium receptor-activating effect”.

Q: Which “Kokumi intensity, Aftertaste” value ([1]; n=5, Table 4) does the source give for [γGlu]-Cys here?
A: The value was 2.0 points.

Q: What about the “Kokumi intensity, Initial and middle taste” value ([1]; n=5, Table 4) of the same molecule?
A: Its value is 2.0 points.

Q: And the “calcium receptor-activating effect” value (human calcium receptor; peptide 50 μM, FIG. 4)?
A: Its value is “definite calcium receptor-activating effect”.

Q: With [γGlu]-Val-Val as the molecule, how does the “Activity (lowest concentration at which current was detected)” value (“Activity” for short) (human calcium receptor) read?
A: Its value is 1,000 μM.

Q: For [γGlu]-Val-Met, which “Activity” value (human calcium receptor) is on record?
A: Its value is 1,000 μM.

Q: Which results are given for [γGlu]-Ala?
A: Kokumi intensity, Aftertaste ([1]; n=3, Table 3): 0.2 points; Kokumi intensity, Initial and middle taste [1, 2]: 0.5 points; calcium receptor-activating effect (Cl response current) (human calcium receptor; peptide 50 μM, FIG. 4): definite calcium receptor-activating effect

Q: Which “calcium receptor-activating effect” value (human calcium receptor; peptide 1 mM, FIG. 4) does the source give for Cys-Met here?
A: The value was “definite calcium receptor-activating effect”.

Q: With Gly-Cys as the molecule, how does the “calcium receptor-activating effect” value (human calcium receptor; peptide 500 μM, FIG. 4) read?
A: Its value is “definite calcium receptor-activating effect”.

Q: Which “Activity” value (human calcium receptor) does the source give for γ-Glu-Val-Asp here?
A: The value was 1,000 μM.

Q: For [γGlu]-Gly, which “calcium receptor-activating effect” value (human calcium receptor; peptide 500 μM, FIG. 4) is on record?
A: The value was “definite calcium receptor-activating effect”.

Q: With Glu-Cys as the molecule, how does the “calcium receptor-activating effect” value (human calcium receptor; peptide 50 μM, FIG. 4) read?
A: Its value is “definite calcium receptor-activating effect”.

Q: Which “Activity” value (human calcium receptor) does the source give for [γGlu]-Val-Gln here?
A: Its value is 10 µM.

Q: With [γGlu]-Ser-Gly as the molecule, how does the “Activity” value (human calcium receptor) read?
A: The value was 30 µM.

Q: For [γGlu]-Val-Asn, which “Activity” value (human calcium receptor) is on record?
A: Its value is 30 µM.

Q: With [γGlu]-Val-Arg as the molecule, how does the “Activity” value (human calcium receptor) read?
A: Its value is 1,000 μM.

Q: For [γGlu]-Val-Thr, which “Activity” value (human calcium receptor) is on record?
A: Its value is 1,000 μM.

Q: With [γGlu]-Val-Glu as the molecule, how does the “Activity” value (human calcium receptor) read?
A: Its value is 1,000 μM.

Q: Which “calcium receptor-activating effect” value (human calcium receptor; L-amino acid 10 mM, FIG. 2) does the source give for N[C@@H](Cc1c[nH]c2ccccc12)C(=O)O [tryptophan, reference compound] here?
A: Its value is “definite calcium receptor-activating effect”.

Q: Which “Activity” value (human calcium receptor) does the source give for γ-Glu-t-Leu here?
A: Its value is 100 µM.

Q: For Cys-Gly, which “calcium receptor-activating effect” value (human calcium receptor; peptide 1 mM, FIG. 4) is on record?
A: Its value is “definite calcium receptor-activating effect”.

Q: With [γGlu]-Gly-Gly as the molecule, how does the “Activity” value (human calcium receptor) read?
A: Its value is 30 µM.

Q: Which “Activity” value (human calcium receptor) does the source give for γ-Glu-Cys(S-Me)-Gly here?
A: Its value is 3 µM.

Q: With [γGlu]-Val-Ser as the molecule, how does the “Activity” value (human calcium receptor) read?
A: The value was 30 µM.

Q: With N[C@@H](Cc1ccccc1)C(=O)O [phenylalanine, reference compound] as the molecule, how does the “calcium receptor-activating effect” value (human calcium receptor; L-amino acid 10 mM, FIG. 2) read?
A: The value was “definite calcium receptor-activating effect”.

Q: For N[C@H](CS)C(=O)O [D-cysteine], which “calcium receptor-activating effect” value (human calcium receptor; D-amino acid 10 mM, FIG. 3) is on record?
A: The value was “definite calcium receptor-activating effect”.

Q: For N[C@@H](Cc1c[nH]cn1)C(=O)O [histidine, reference compound], which “calcium receptor-activating effect” value (human calcium receptor; L-amino acid 10 mM, FIG. 2) is on record?
A: Its value is “definite calcium receptor-activating effect”.

Q: Which “calcium receptor-activating effect” value (human calcium receptor; peptide 50 μM, FIG. 4) does the source give for N[C@@H](CCC(=O)N[C@@H](CSN=O)C(=O)NCC(=O)O)C(=O)O [γ-Glu-Cys(SNO)-Gly] here?
A: Its value is “definite calcium receptor-activating effect”.

Q: For γ-Glu-Tau, which “Activity” value (human calcium receptor) is on record?
A: Its value is 300 µM.

Q: For [γGlu]-Val-Lys, which “Activity” value (human calcium receptor) is on record?
A: The value was 1,000 μM.

Q: For [γGlu]-Val-Phe, which “Activity” value (human calcium receptor) is on record?
A: Its value is 30 µM.

Q: With [γGlu]-Val-[Orn] as the molecule, how does the “Activity” value (human calcium receptor) read?
A: Its value is 100 µM.

Q: For [γGlu]-Thr, which “calcium receptor-activating effect” value (human calcium receptor; peptide 50 μM, FIG. 4) is on record?
A: The value was “definite calcium receptor-activating effect”.

Q: With [γGlu]-[γGlu]-Val as the molecule, how does the “Activity” value (human calcium receptor) read?
A: The value was 1,000 μM.

Q: For [γGlu]-Val-Cys, which “Activity” value (human calcium receptor) is on record?
A: The value was 10 µM.

Q: For N[C@@H](CS)C(=O)O [cysteine, reference compound], which “calcium receptor-activating effect” value (human calcium receptor; L-amino acid 10 mM, FIG. 2) is on record?
A: The value was “definite calcium receptor-activating effect”.

Q: With [γGlu]-Val-Pro as the molecule, how does the “Activity” value (human calcium receptor) read?
A: The value was 30 µM.

Q: Which results are given for [γGlu]-Met?
A: Taste profile ([1]; n=3, Table 3): Thickness and growth are slightly; Kokumi intensity, Aftertaste ([1]; n=3, Table 3): 0.4 points; Kokumi intensity, Initial and middle taste [1, 2]: 1.5 points; calcium receptor-activating effect (Cl response current) (human calcium receptor; peptide 500 μM, FIG. 4): definite calcium receptor-activating effect

Q: For [γGlu]-Val, which “Kokumi intensity, Aftertaste” value ([1]; n=3, Table 3) is on record?
A: Its value is 1.0 points.

Q: What about the “Kokumi intensity, Aftertaste” value ([1]; n=5, Table 4) of the same molecule?
A: The value was 1.0 points.

Q: And the “Kokumi intensity, Initial and middle taste” value ([1]; n=5, Table 4)?
A: The value was 3.0 points.

Q: And the “Kokumi intensity, Initial and middle taste” value [1, 2]?
A: The value was 3.0 points.

Q: What about the “calcium receptor-activating effect” value (human calcium receptor; peptide 50 μM, FIG. 4) of the same molecule?
A: Its value is “definite calcium receptor-activating effect”.

Q: With N[C@@H](Cc1ccc(O)cc1)C(=O)O [tyrosine, reference compound] as the molecule, how does the “calcium receptor-activating effect” value (human calcium receptor; L-amino acid 10 mM, FIG. 2) read?
A: Its value is “definite calcium receptor-activating effect”.

Q: Which “calcium receptor-activating effect” value (human calcium receptor; peptide 1 mM, FIG. 4) does the source give for Asp-Gly here?
A: Its value is “definite calcium receptor-activating effect”.

Q: Which “Activity” value (human calcium receptor) does the source give for [γGlu]-Val-His here?
A: Its value is 100 µM.

Q: With γ-Glu-Cys(S-allyl)-Gly as the molecule, how does the “Activity” value (human calcium receptor) read?
A: The value was 100 µM.

Q: Which “calcium receptor-activating effect” value (human calcium receptor; peptide 500 μM, FIG. 4) does the source give for γ-Glu-Orn here?
A: Its value is “definite calcium receptor-activating effect”.
